Measurements reported in patent publication US4997829A, “Penem compounds, and use thereof” (Suntory Limited, priority 1985, dated 1991).

Tests used:
Experiment in all cases: Minimum inhibitory concentration (MIC), agar plate dilution method
Type in all cases: cell-based
S. aureus FAD209P JC-1 = details: Staphylococcus aureus, FAD209PJC1; 10^6 CFU inoculated, 37° C., 18 hours
Procedure: (§1) With regard to the novel compounds obtained according to this invention and the compounds of Reference Examples, their minimum inhibitory concentrations (MIC) were determined by the agar plate dilution method in accordance with the MIC measuring standard method of The Chemotherapeutic Society of Japan, whereby 10^6 colony forming units were inoculated and the minimal concentration to inhibit the microbial growth after inclubation at 37° C. for 18 hours were determined, as shown as μg/ml in Table.

Pr. vulgaris GN7919 = details: Proteus vulgaris, GN7919; 10^6 CFU inoculated, 37° C., 18 hours
Procedure: as §1

M. luteus ATCC9341 = details: Micrococcus luteus, ATCC9341; 10^6 CFU inoculated, 37° C., 18 hours
Procedure: as §1

Al. fecalis IFO13111 = details: 10^6 CFU inoculated, 37° C., 18 hours
Procedure: as §1

B. fragilis V-280-1 = details: Bacteroides fragilis, V2801; 10^6 CFU inoculated, 37° C., 18 hours
Procedure: as §1

Ent. cloacae 963 = details: Enterobacter cloacae, 963; 10^6 CFU inoculated, 37° C., 18 hours
Procedure: as §1

E. coli NIHI JC-2 = details: Escherichia coli, NIHIJC2; 10^6 CFU inoculated, 37° C., 18 hours
Procedure: as §1

Ser. marcescens IMA 1136 = details: Serratia marcescens, IMA1136; 10^6 CFU inoculated, 37° C., 18 hours
Procedure: as §1

B. fragilis GM7000 = details: Bacteroides fragilis, GM7000; 10^6 CFU inoculated, 37° C., 18 hours
Procedure: as §1

F. varium ATCC8501 = details: Fusobacterium varium, ATCC8501; 10^6 CFU inoculated, 37° C., 18 hours
Procedure: as §1

E. coli W3630/Rms213 = details: Escherichia coli, W3630/RMS213, 18 h, read-out: minimum inhibitory concentration (MIC)
Procedure: as §1

Pr. morganii IFO3848 = details: Morganella morganii, IFO3848; 10^6 CFU inoculated, 37° C., 18 hours
Procedure: as §1

E. coli W3630/Rms212 = details: Escherichia coli, W3630/RMS212, 18 h, read-out: minimum inhibitory concentration (MIC)
Procedure: as §1

K. pneumoniae PC1602 = details: Klebsiella pneumoniae, PC1602; 10^6 CFU inoculated, 37° C., 18 hours
Procedure: as §1

Compound	MIC (S. aureus FAD209P JC-1)	MIC (Pr. vulgaris GN7919)	MIC (M. luteus ATCC9341)	MIC (Al. fecalis IFO13111)	MIC (B. fragilis V-280-1)	MIC (Ent. cloacae 963)	MIC (E. coli NIHI JC-2)	MIC (Ser. marcescens IMA 1136)	MIC (B. fragilis GM7000)	MIC (F. varium ATCC8501)	MIC (E. coli W3630/Rms213)	MIC (Pr. morganii IFO3848)	MIC (E. coli W3630/Rms212)	MIC (K. pneumoniae PC1602)
C[C@@H](O)[C@H]1C(=O)N2C(C(=O)O)=C(C3COCCO3)S[C@H]12 (mixture of isomers) [SUN 4742, Potassium (1'R, 2"s, 5R, 6S and 1'R, 2"R, 5R, 6S)-6-(1'-hydroxyethyl)-2-(2"-paradioxanyl)penem-3-carboxylate]	0.05 µg/mL	0.78 µg/mL	0.1 µg/mL	0.78 µg/mL	0.05 µg/mL	6.25 µg/mL	1.56 µg/mL	6.25 µg/mL	0.05 µg/mL	0.78 µg/mL	0.78 µg/mL	6.25 µg/mL	3.13 µg/mL	0.1 µg/mL
C[C@@H](O)[C@H]1C(=O)N2C(C(=O)O)=C(Cc3ccsc3)S[C@H]12 (relative stereo) [SUN 3514, Potassium (1'R, 5R, 6S and 1'S, 5S, 6R)-6-(1'-hydroxyethyl)-2-(3"-thiophenemethyl)penem-3-carboxylate, reference compound]	0.05 µg/mL	6.25 µg/mL	0.2 µg/mL	0.39 µg/mL	0.39 µg/mL	> 50 µg/mL	> 50 µg/mL	50 µg/mL	0.39 µg/mL	0.39 µg/mL	25 µg/mL	8.13 µg/mL	50 µg/mL	0.78 µg/mL
CCSCC1=C(C(=O)O)N2C(=O)[C@H]([C@@H](C)O)[C@H]2S1 (relative stereo) [SUN 3515, Potassium (1'R, 5R, 6S and 1'S, 5S, 6R)-2-ethylmethylthio)-6-(1'-hydroxyethyl)-penem-3-carboxylate, reference compound]	0.1 µg/mL	1.56 µg/mL	0.2 µg/mL	0.78 µg/mL	0.2 µg/mL	50 µg/mL	25 µg/mL	25 µg/mL	0.1 µg/mL	0.39 µg/mL	12.5 µg/mL	3.13 µg/mL	25 µg/mL	0.78 µg/mL
CCOCC1=C(C(=O)O)N2C(=O)[C@H]([C@@H](C)O)[C@H]2S1 (relative stereo) [SUN 3519, Potassium (1'R, 5R, 6S and 1's, 5S, 6R)-2-(ethoxymethyl)-6-(1'-hydroxyethyl)-penem-3-carboxylate, reference compound]	0.2 µg/mL	1.56 µg/mL	0.2 µg/mL	1.56 µg/mL	0.1 µg/mL	12.5 µg/mL	6.25 µg/mL	12.5 µg/mL	0.1 µg/mL	0.39 µg/mL	6.25 µg/mL	6.25 µg/mL	6.25 µg/mL	1.56 µg/mL
COCC1=C(C(=O)O)N2C(=O)[C@H]([C@@H](C)O)[C@H]2S1 (relative stereo) [SUN 3585, Potassium (1'R, 5R, 6S and 1'S, 5S, 6R)-6-(1-hydroxyethyl)-2-(methoxymethyl)penem-3-carboxylate, reference compound]	0.1 µg/mL	0.78 µg/mL	0.1 µg/mL	1.56 µg/mL	0.1 µg/mL	3.13 µg/mL	0.78 µg/mL	3.13 µg/mL	0.05 µg/mL	0.78 µg/mL	0.78 µg/mL	6.25 µg/mL	0.78 µg/mL	0.78 µg/mL
C[C@@H](O)[C@H]1C(=O)N2C(C(=O)O)=C(C3CCCO3)S[C@H]12 (relative stereo) [SUN 4068, potassium (1'R, 2"R, 5R, 6S and 1'R, 2"S, 5R, 6S and 1'S, 2"R, 5S, 6R and 1'S, 2"S, 5S, 6R)-6-(1'-hydroxyethyl)-2-(2"-tetrahydrofuranyl)penem-3-carboxylate]	0.1 µg/mL	0.78 µg/mL	0.1 µg/mL	1.56 µg/mL	0.2 µg/mL	6.25 µg/mL	1.56 µg/mL	6.25 µg/mL	0.05 µg/mL	0.78 µg/mL	3.13 µg/mL	3.13 µg/mL	3.13 µg/mL	0.39 µg/mL
C[C@@H](O)[C@H]1C(=O)N2C(C(=O)O)=C([C@@H]3CCCO3)S[C@H]12 (relative stereo) [SUN 4118, potassium (1'R, 2"S, 5R, 6S and 1'S, 2"R, 5S, 6R)-6-(1'-hydroxyethyl)-2-(2"-tetrahydrofuranyl)penem-3-carboxylate]	0.1 µg/mL	1.56 µg/mL	0.05 µg/mL	1.56 µg/mL	0.2 µg/mL	25 µg/mL	–	25 µg/mL	–	1.56 µg/mL	12.5 µg/mL	–	12.5 µg/mL	–
C[C@@H](O)[C@H]1C(=O)N2C(C(=O)O)=C(c3ccco3)S[C@H]12 (relative stereo) [SUN 4194, Potassium (1'R, 5R, 6S and 1',S, 5S, 6R)-2-(2"-furanyl)-6-(1'-hydroxyethyl)penem-3-carboxylate, reference compound]	0.39 µg/mL	3.13 µg/mL	0.2 µg/mL	6.25 µg/mL	6.25 µg/mL	25 µg/mL	25 µg/mL	25 µg/mL	0.39 µg/mL	6.25 µg/mL	25 µg/mL	12.5 µg/mL	25 µg/mL	3.13 µg/mL
C[C@@H](O)[C@H]1C(=O)N2C(C(=O)O)=C(c3ccoc3)S[C@H]12 (relative stereo) [SUN 4196, Potassium (1'R, 5R, 6S and 1'S, 5S, 6R)-2-(3"-furanyl)-6(1'-hydroxyethyl)penem-3-carboxylate, reference compound]	0.2 µg/mL	3.13 µg/mL	0.2 µg/mL	12.5 µg/mL	12.5 µg/mL	25 µg/mL	1.25 µg/mL	25 µg/mL	0.78 µg/mL	6.25 µg/mL	25 µg/mL	12.5 µg/mL	25 µg/mL	3.13 µg/mL
C[C@@H](O)[C@H]1C(=O)N2C(C(=O)O)=C([C@@H]3CCC(=O)O3)S[C@H]12 [SUN 4262, Potassium (1'R, 2"S, 5R, 6S)-6-(1'-hydroxyethyl)-2-[2"-(5"-oxo)oxolanyl]penem-3-carboxylate]	0.2 µg/mL	3.13 µg/mL	0.2 µg/mL	3.13 µg/mL	0.2 µg/mL	12.5 µg/mL	3.13 µg/mL	12.5 µg/mL	0.2 µg/mL	3.13 µg/mL	3.13 µg/mL	12.5 µg/mL	3.13 µg/mL	1.56 µg/mL
C[C@@H](O)[C@H]1C(=O)N2C(C(=O)O)=C([C@H]3CCC(=O)O3)S[C@H]12 [SUN 4374, Potassium (1'R, 2"R, 5R, 6S)-6-(1'-hydroxyethyl)-2[2"-(5"-oxo)oxolanyl]penem-3-carboxylate]	0.1 µg/mL	0.78 µg/mL	0.1 µg/mL	1.56 µg/mL	–	3.13 µg/mL	1.56 µg/mL	3.13 µg/mL	–	–	0.78 µg/mL	3.13 µg/mL	1.56 µg/mL	0.39 µg/mL
C[C@@H](O)[C@H]1C(=O)N2C(C(=O)O)=C([C@@H]3CCCO3)S[C@H]12 [SUN 4434, Potassium (1'R, 2"S, 5R, 6S)-6-(1'-hydroxyethyl)-2-(2"-tetrahydofuranyl)penem-3-carboxylate]	0.05 µg/mL	0.78 µg/mL	< 0.025 µg/mL	3.13 µg/mL	0.2 µg/mL	12.5 µg/mL	–	25 µg/mL	–	1.56 µg/mL	6.25 µg/mL	–	12.5 µg/mL	–
